Measured values taken from article PMC5503534, “Stable aneuploid tumors cells are more sensitive to TTK inhibition than chromosomally unstable cell lines” (Oncotarget, 2017).
Read-outs that look alike come from different tables or passages of the source.

Assays:
[1] = tested on: post-tetraploid HPT4 cells; experiment: Cell proliferation assay, post-tetraploid HPT4; format: cell-based, human; details: HPT4, five days
Experimental: (§1) Cancer cell lines and hTERT-RPE1 retinal pigment epithelial cells were purchased from the American Type Culture Collection (ATCC) (Manassas, VA, U.S.A.) from 2011 to 2014 [41] and cultured in ATCC-recommended media. All experiments were carried out within nine passages of the original vials from ATCC who authenticated the cancer cell lines by short tandem repeat analysis. We verified the mutant status of seven frequently mutated cancer genes (i.e., BRAF, CDKN2A, CTNNB1, EGFR, KRAS, PIK3CA and TP53) by full exome or targeted sequencing. Sequencing results were compared to COSMIC version 75 of the Genomics of Drug Sensitivity in Cancer data base and provided additional authentication of the identity of the cell lines. The isolation and characterization of post-tetraploid clones from HCT 116 has been described previously. The mutation status of the CDKN2A, CTNNB1, KRAS and PIK3CA genes were confirmed by sequence analysis in both the HCT 116 parental cell line and post-tetraploid clones. All experiments were carried out within nine passages of the original cell stocks that were transferred from the Max Planck Institute of Biochemistry (Martinsried, Germany) to Netherlands Translational Research Center.
(§2) Cell proliferation assays were carried out as described using ATPlite 1step™ (Perkin Elmer, Groningen, The Netherlands). Exposure time was 72 or 120 hours as indicated in the Legends to the Figures. Percentage growth was calculated, relative to the growth of unexposed cells, and relative IC50s were fitted using a four-parameter logistics curve (XLfit 5.3, IDBS). For Figure 4A and 7 dose response curves were redrawn in Prism. To compare the inhibitory potency of compounds in proliferation assays with HCT 116 parental and tetraploid clones, pIC50 (−^10logIC50) values were compared in three independent experiments. A two-tailed Student's t-test was performed to determine whether differences in sensitivity (ΔpIC50) were statistically significant. Caspase 3/7 activity of cancer cells was measured using Caspase-Glo 3/7 Assay kit (cat no. G8093, Promega, Madison USA). Viability of T-ALL cell samples was determined using ATPlite and exposure of 72 hours as described previously.

[2] = tested on: A-172 glioblastoma cell line; experiment: Cell proliferation assay (ATPlite), A-172; format: cell-based, human; details: Homo sapiens, 120 h, 5 day proliferation assay
Experimental: as §2

[3] = tested on: DoTc2 4510 cervix carcinoma cell line; experiment: Cell proliferation assay (ATPlite), DoTc2 4510; format: cell-based, human; details: Homo sapiens, 120 h, 5 day proliferation assay
Experimental: as §2

full-length Aurora B = molecular target: T1, full-length Aurora B (Homo sapiens, UniProt Q96GD4); experiment: Surface plasmon resonance binding kinetics, Aurora B; details: SPR, geometric average
T1 construct: to the kinase domain of TTK and full-length Aurora B; purchased Carna Biosciences, Inc., Kobe, Japan; host or cells: Sf9 insect cells
T1 sequence (Q96GD4 whole entry, the tested form may be a part): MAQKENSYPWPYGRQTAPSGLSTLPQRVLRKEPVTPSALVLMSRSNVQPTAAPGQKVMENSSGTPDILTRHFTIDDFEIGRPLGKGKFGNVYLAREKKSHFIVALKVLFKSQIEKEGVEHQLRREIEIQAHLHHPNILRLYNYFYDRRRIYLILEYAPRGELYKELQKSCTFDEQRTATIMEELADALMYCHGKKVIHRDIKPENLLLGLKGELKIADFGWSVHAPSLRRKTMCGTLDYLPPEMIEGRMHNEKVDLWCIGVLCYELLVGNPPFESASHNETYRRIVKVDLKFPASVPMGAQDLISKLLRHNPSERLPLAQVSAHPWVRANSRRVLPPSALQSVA
Description: (§3) Originally, the compound was identified in a phenotypic screen for molecules that can induce stem-cell like phenotypes. Later this property was attributed to its ability to inhibit the mitotic kinase Aurora B [39].

[4] = tested on: OVCAR-3 ovary adenocarcinoma cell line; experiment: Cell proliferation assay (ATPlite), OVCAR-3; format: cell-based, human; details: Homo sapiens, 120 h, 5 day proliferation assay
Experimental: as §2

[5] = tested on: post-tetraploid HPT2 cells; experiment: Cell proliferation assay, post-tetraploid HPT2; format: cell-based, human; details: HPT2, five days
Experimental: as §1, §2

TTK kinase domain = molecular target: T2, TTK kinase domain (Homo sapiens, UniProt P33981); experiment: Surface plasmon resonance binding kinetics, TTK; details: SPR, geometric average
T2 construct: using bacterially expressed TTK kinase domain and Sf9 insect cell-expressed Aurora B; purchased Carna Biosciences, Inc., Kobe, Japan
T2 sequence (P33981 525-791 limits assumed): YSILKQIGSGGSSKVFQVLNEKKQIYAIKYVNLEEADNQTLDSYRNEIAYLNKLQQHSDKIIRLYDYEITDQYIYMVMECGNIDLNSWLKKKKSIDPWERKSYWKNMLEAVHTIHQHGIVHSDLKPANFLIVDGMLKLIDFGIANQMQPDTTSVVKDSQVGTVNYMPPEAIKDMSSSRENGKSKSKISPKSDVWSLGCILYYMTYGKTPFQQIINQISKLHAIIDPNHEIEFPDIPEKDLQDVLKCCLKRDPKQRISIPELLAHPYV
Description: as §3

[6] = tested on: 66 cancer cell lines (44 cell lines); set-up: method as in earlier work; details: 5 days; geometric average in 66 cancer cell lines; cited from earlier work
[7] = tested on: patient-derived colorectal carcinoma organoids; experiment: Organoids drug sensitivity and viability assay; format: cell-based, human; details: Homo sapiens
Experimental: The establishment and characterization of the human colon cancer organoids has been described. The organoids were cultured in drops of Geltrex LDEV-Free Reduced Growth Factor Basement Membrane Matrix (Gibco, cat no. A1413202) in DMEM/F12 medium (Thermo), supplemented with 1% (v/v) penicillin/streptomycin (Gibco), 1% Hepes buffer, pH7.5, 1% L-glutamine (Gibco), 1 μg/mL R-spondin (Sigma), 100 ng/mL Noggin (Peprotech), B27 vitamin A-free (Invitrogen, cat no. 12587010), 1 mM n-acetyl cysteine (Sigma), 10 mM nicotinamide (Sigma), 50 ng/mL EGF (BD Biosciences), 500 nM A83-01 (Tocris), 10 μM SB202190 (Sigma), 10 μM Y-27632 (Sigma) and 10 nM Prostaglandin E2 (Cayman). Medium was refreshed every four days and organoids were splitted by treatment with TryPLE Express (Gibco, cat. no. 12604013).
Organoids were dissociated by TryPLE Express treatment and filtered using a 40 μm nylon cell strainer (Falcon). The organoids were re-suspended in Geltrex at a density of 250,000 cells/mL and seeded in the wells of 96-well plates (Corning, cat no. 3903) at 10 μl per well. Compounds were added four days after plating and 72 hours later viability was determined using Cell-Titer Glo 3D Cell Viability Assay (Promega, Madison USA). Experiments were performed in three biological replicates and technical triplicates were averaged per experiment.

[8] = tested on: post-tetraploid HPT1 cells; experiment: Cell proliferation assay, post-tetraploid HPT1; format: cell-based, human; details: HPT1, five days
Experimental: as §1, §2

[9] = tested on: MG-63 osteosarcoma cell line; experiment: Cell proliferation assay (ATPlite), MG-63; format: cell-based, human; details: Homo sapiens, 120 h, 5 day proliferation assay
Experimental: as §2

[10] = tested on: HCT 116 vs HPT1, -2 and -4; experiment: Drug sensitivity analysis, HCT116 diploid versus tetraploids; format: cell-based, human
Experimental: as §2

[11] = tested on: HCT 116 colon carcinoma cell line; experiment: Cell proliferation assay (ATPlite), HCT 116; format: cell-based, human; details: for IC50: Homo sapiens, HCT-116, 120 h
Experimental: as §2

[12] = Homo sapiens, 120 h, geometric average of three experiments

Compound: c1nc2nc(Nc3ccc(N4CCOCC4)cc3)nc(NC3CCCCC3)c2[nH]1 [reversine]
- Efficacy (%) ([1]; average of three experiments): 33%
- IC50 [1, 12]: 159 nM
- IC50 [2]: 158 nM
- IC50 [3]: 416 nM
- kd (full-length Aurora B): 0.00484 s⁻¹
- IC50 [4]: 441 nM
- Efficacy (%) ([5]; average of three experiments): 44%
- IC50 [5, 12]: 253 nM
- kd (TTK kinase domain): 8.86e-05 s⁻¹
- IC50 [6]: 239 nM
- IC50 ([7]; 72 h, organoid p14, three days, read-out: IC50): 493 nM
- IC50 ([7]; 72 h, organoid p14, three days, read-out: pIC50 (converted)): 468 nM
- IC50 ([7]; 72 h, organoid p18, three days, read-out: IC50): 285 nM
- IC50 ([7]; 72 h, organoid p18, three days, read-out: pIC50 (converted)): 269 nM
- IC50 ([7]; 72 h, organoid p28, three days, read-out: IC50): 757 nM
- IC50 ([7]; 72 h, organoid p28, three days, read-out: pIC50 (converted)): 646 nM
- IC50 ([7]; All organoids, geometric average, read-out: pIC50 (converted)): 437 nM
- Efficacy (%) ([8]; average of three experiments): 58%
- IC50 [8, 12]: 208 nM
- IC50 [9]: 434 nM
- Δeff. (%) ([10]; HCT 116 vs HPT1, -2 and -4): −32%
- Phenotype (efficacy) ([10]; HCT 116 vs HPT1, -2 and -4, based on % effect): resistant
- Phenotype (potency) ([10]; HCT 116 vs HPT1, -2 and -4, 'resistant' indicates that tetraploids are resistant): sensitive
- ΔpIC50 ([10]; average log shift in sensitivity between parental and tetraploids): −0.08
- Eff. (%) ([11]; HCT 116, five days, maximum inhibitory effect, average of three experiments): 77%
- IC50 ([11]; 5 day proliferation assay, HCT 116 (Suppl. Table 1)): 175 nM
- IC50 ([11]; HCT 116 near-diploid, five days, geometric average of three experiments (Suppl. Table 2A)): 242 nM
